Patent US11357246B2, “High intensity sweeteners” (Firmenich Incorporated, priority 2015, dated 2022)

Target: T1, hT1R2/hT1R3 (Homo sapiens, UniProt Q7RTX0+Q8TE23)
T1 construct: expressed in transfected cells; parental cells lack the receptor
T1 sequence (Q8TE23 20-839): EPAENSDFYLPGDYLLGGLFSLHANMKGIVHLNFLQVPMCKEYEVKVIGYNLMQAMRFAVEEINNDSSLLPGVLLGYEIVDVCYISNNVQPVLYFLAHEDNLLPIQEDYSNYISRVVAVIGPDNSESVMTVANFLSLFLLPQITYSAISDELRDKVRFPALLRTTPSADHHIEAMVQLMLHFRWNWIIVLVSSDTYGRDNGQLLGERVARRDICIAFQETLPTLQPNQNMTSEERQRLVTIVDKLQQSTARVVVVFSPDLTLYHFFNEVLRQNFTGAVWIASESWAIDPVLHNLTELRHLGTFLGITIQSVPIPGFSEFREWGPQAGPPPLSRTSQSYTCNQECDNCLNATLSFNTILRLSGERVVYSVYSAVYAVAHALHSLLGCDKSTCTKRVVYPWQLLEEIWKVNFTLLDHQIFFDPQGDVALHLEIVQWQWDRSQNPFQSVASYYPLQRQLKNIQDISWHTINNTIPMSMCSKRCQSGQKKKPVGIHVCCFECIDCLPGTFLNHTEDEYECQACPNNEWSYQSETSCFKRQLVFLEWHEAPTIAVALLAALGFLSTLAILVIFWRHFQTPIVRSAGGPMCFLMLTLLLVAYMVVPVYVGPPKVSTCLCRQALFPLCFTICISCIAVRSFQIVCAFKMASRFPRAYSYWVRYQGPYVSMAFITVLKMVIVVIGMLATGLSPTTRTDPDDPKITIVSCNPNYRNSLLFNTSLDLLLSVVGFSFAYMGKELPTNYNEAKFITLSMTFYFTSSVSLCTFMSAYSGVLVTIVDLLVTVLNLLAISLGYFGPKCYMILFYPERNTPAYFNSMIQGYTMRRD
T1 sequence (Q7RTX0 21-852): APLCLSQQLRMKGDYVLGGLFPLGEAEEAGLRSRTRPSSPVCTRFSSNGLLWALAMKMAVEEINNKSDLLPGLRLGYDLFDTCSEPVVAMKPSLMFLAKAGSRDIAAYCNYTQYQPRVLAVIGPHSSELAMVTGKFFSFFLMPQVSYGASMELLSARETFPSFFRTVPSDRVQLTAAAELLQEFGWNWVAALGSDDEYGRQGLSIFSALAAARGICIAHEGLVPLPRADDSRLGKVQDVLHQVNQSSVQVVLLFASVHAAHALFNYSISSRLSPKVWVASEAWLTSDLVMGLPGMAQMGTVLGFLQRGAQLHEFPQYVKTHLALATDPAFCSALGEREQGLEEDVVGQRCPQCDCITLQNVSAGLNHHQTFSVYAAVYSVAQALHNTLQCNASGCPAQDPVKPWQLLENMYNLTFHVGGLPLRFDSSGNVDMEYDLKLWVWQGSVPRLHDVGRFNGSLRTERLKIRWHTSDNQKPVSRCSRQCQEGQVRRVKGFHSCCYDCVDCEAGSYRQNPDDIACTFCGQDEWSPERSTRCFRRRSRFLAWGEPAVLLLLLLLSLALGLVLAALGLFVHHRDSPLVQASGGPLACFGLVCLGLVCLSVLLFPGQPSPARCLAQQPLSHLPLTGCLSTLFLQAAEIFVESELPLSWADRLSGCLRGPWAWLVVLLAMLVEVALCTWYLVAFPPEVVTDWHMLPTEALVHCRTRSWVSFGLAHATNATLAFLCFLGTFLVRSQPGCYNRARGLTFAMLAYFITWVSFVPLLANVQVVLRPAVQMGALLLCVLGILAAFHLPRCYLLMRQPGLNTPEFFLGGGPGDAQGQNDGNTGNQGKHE
Experiment: HTS-Sweet: FLIPR calcium fluorometric imaging assay in cells stably expressing the human sweet taste receptor and a promiscuous G protein
Type: cell-based
Settings: not given
Experimental: Compound activity (EC50) was determined using an automated fluorometric imaging assay on a FLIPR instrument (Fluorometric […] Plate Reader, Molecular Devices, Sunnyvale, Calif.). Cell stably expressing the human sweet taste receptor and a promiscuous G protein were seeded into 384-well plates (at approximately 40,000 cells per well). Cells were grown for 24 hours at 37° C. Cells were then loaded with the calcium dye Fluo-4AM (Molecular Probes, Eugene, Oreg.), 4 μM in a phosphate buffered saline (D-PBS) (Invitrogen, Carlsbad, Calif.), for 1 hour at room temperature. After replacement with 25 μl D-PBS, stimulation was performed in the FLIPR instrument and at room temperature by the addition of 25 μl D-PBS supplemented with different stimuli at concentrations corresponding to twice the desired final level. Receptor activity was quantified by determining the maximal fluorescence increases (using a 480 nm excitation and 535 nm emission) after normalization to basal fluorescence intensity measured before stimulation.
For dose-responses analysis, stimuli were presented in duplicates at 10 different concentrations ranging from 0.4 μM to 200 μM. EC50 s were determined using a non-linear regression algorithm, where the Hill slope, bottom asymptotes and top asymptotes were allowed to vary.

C[C@H](CC[C@@H](O[C@@H]1O[C@H](CO[C@H]2O[C@H](CO)[C@@H](O)[C@H](O)[C@H]2O)[C@@H](O)[C@H](O)[C@H]1O[C@@H]1O[C@H](CO)[C@@H](O)[C@H](O)[C@H]1O)C(C)(C)O)C1CC[C@@]2(C)C3CC=C4C(CC[C@H](O[C@@H]5O[C@H](CO)[C@@H](O)[C@H](O)[C@H]5O)C4(C)C)[C@]3(C)[C@H](O)C[C@]12C (stereo partly drawn) [Compound 3] and C[C@H](CC[C@@H](O[C@@H]1O[C@H](CO[C@H]2O[C@H](CO)[C@@H](O)[C@H](O)[C@H]2O)[C@@H](O)[C@H](O)[C@H]1O[C@@H]1O[C@H](CO)[C@@H](O)[C@H](O)[C@H]1O)C(C)(C)O)C1CC[C@@]2(C)C3CC=C4C(CC[C@H](O[C@@H]5O[C@H](CO[C@@H]6O[C@H](CO)[C@@H](O)[C@H](O)[C@H]6O)[C@@H](O)[C@H](O)[C@H]5O)C4(C)C)[C@]3(C)[C@H](O)C[C@]12C (stereo partly drawn) [Compound 23] cannot be ordered by EC50: less than 17 µM for the first, less than 17 µM for the second.

First: C[C@H](CC[C@@H](O[C@@H]1O[C@H](CO[C@H]2O[C@H](CO)[C@@H](O)[C@H](O)[C@H]2O)[C@@H](O)[C@H](O)[C@H]1O[C@@H]1O[C@H](CO)[C@@H](O)[C@H](O)[C@H]1O)C(C)(C)O)C1CC[C@@]2(C)C3CC=C4C(CC[C@H](O[C@@H]5O[C@H](CO[C@H]6O[C@H](CO)[C@@H](O)[C@H](O)[C@H]6O)[C@@H](O)[C@H](O)[C@H]5O)C4(C)C)[C@]3(C)[C@H](O)C[C@]12C (stereo partly drawn) [Compound 4]
Second: CC(CCC(OC1OC(COC2OC(CO)C(O)C(O)C2O)C(O)C(O)C1OC1OC(CO)C(O)C(O)C1O)C(C)(C)O)C1CCC2(C)C3CC=C4C(CCC(OC5OC(COC6OC(CO)C(O)C(O)C6O)C(O)C(O)C5O)C4(C)C)C3(C)C(O)CC12C (stereo not drawn) [Compound 12]
The EC50 of the first is lower: less than 17 µM for the first, 17 to 30 µM for the second.

Same assay, conditions: FLIPR, Fluo-4AM, 10 concentrations 0.4 μM to 200 μM in duplicates; read-out: Compound EC50s for hT1R2/hT1R3

First: C[C@H](CC[C@@H](O[C@@H]1O[C@H](CO)[C@@H](O)[C@H](O)[C@H]1O[C@@H]1O[C@H](CO)[C@@H](O)[C@H](O)[C@H]1O)C(C)(C)O)C1CC[C@@]2(C)C3CC=C4C(CC[C@H](O[C@@H]5O[C@H](CO[C@@H]6O[C@H](CO)[C@@H](O)[C@H](O)[C@H]6O)[C@@H](O)[C@H](O)[C@H]5O[C@H]5O[C@@H](CO)[C@H](O)[C@@H](O)[C@@H]5O)C4(C)C)[C@]3(C)[C@H](O)C[C@]12C (stereo partly drawn) [Compound 32]
Second: C[C@H](CC[C@@H](O[C@@H]1O[C@H](CO[C@H]2O[C@H](CO)[C@@H](O)[C@H](O)[C@H]2O)[C@@H](O)[C@H](O)[C@H]1O[C@@H]1O[C@H](CO)[C@@H](O)[C@H](O)[C@H]1O)C(C)(C)O)C1CC[C@@]2(C)C3CC=C4C(CC[C@H](O[C@@H]5O[C@H](CO)[C@@H](O[C@H]6O[C@H](CO)[C@@H](O)[C@H](O)[C@H]6O)[C@H](O)[C@H]5O)C4(C)C)[C@]3(C)[C@H](O)C[C@]12C (stereo partly drawn) [Compound 5]
The EC50 of the first is higher: greater than 30 µM for the first, 17 to 30 µM for the second. The second is the more potent here.

First: C[C@H](CC[C@@H](O[C@@H]1O[C@H](CO[C@@H]2O[C@H](CO[C@@H]3O[C@H](CO)[C@@H](O)[C@H](O)[C@H]3O)[C@@H](O)[C@H](O)[C@H]2O)[C@@H](O)[C@H](O)[C@H]1O[C@@H]1O[C@H](CO)[C@@H](O)[C@H](O)[C@H]1O)C(C)(C)O)C1CC[C@@]2(C)C3CC=C4C(CC[C@H](O[C@@H]5O[C@H](COC6O[C@H](CO)[C@@H](O)[C@H](O)[C@H]6O)[C@@H](O)[C@H](O)[C@H]5O)C4(C)C)[C@]3(C)[C@H](O)C[C@]12C (stereo partly drawn) [Compound 30]
Second: C[C@H](CC[C@@H](O[C@@H]1O[C@H](CO[C@@H]2O[C@H](CO)[C@@H](O)[C@H](O)[C@H]2O)[C@@H](O)[C@H](O)[C@H]1O[C@@H]1O[C@H](CO)[C@@H](O)[C@H](O)[C@H]1O)C(C)(C)O)C1CC[C@@]2(C)C3CC=C4C(CC[C@H](O[C@@H]5O[C@H](CO[C@H]6O[C@H](CO[C@H]7O[C@@H](CO)[C@H](O)[C@@H](O)[C@@H]7O)[C@@H](O)[C@H](O)[C@H]6O)[C@@H](O)[C@H](O)[C@H]5O)C4(C)C)[C@]3(C)[C@H](O)C[C@]12C (stereo partly drawn) [Compound 2]
The EC50 of the first is higher: greater than 30 µM for the first, 17 to 30 µM for the second.

C[C@H](CC[C@@H](O[C@@H]1O[C@H](CO)[C@@H](O)[C@H](O)[C@H]1O[C@@H]1O[C@H](CO)[C@@H](O[C@H]2O[C@H](CO)[C@@H](O)[C@H](O)[C@H]2O)[C@H](O)[C@H]1O)C(C)(C)O)C1CC[C@@]2(C)C3CC=C4C(CC[C@H](O[C@@H]5O[C@H](CO)[C@@H](O)[C@H](O)[C@H]5O)C4(C)C)[C@]3(C)[C@H](O)C[C@]12C (stereo partly drawn) [Compound 9] and C[C@H](CC[C@@H](O[C@@H]1O[C@H](CO[C@H]2O[C@H](CO)[C@@H](O)[C@H](O)[C@H]2O)[C@@H](O)[C@H](O)[C@H]1O[C@@H]1O[C@H](CO)[C@@H](O[C@H]2O[C@H](CO)[C@@H](O)[C@H](O)[C@H]2O)[C@H](O)[C@H]1O)C(C)(C)O)C1CC[C@@]2(C)C3CC=C4C(CC[C@H](O)C4(C)C)[C@]3(C)[C@H](O)C[C@]12C (stereo partly drawn) [Compound 16] fall in the same range of EC50: 17 to 30 µM for the first, 17 to 30 µM for the second.

C[C@H](CC[C@@H](O[C@@H]1O[C@H](CO)[C@@H](O)[C@H](O)[C@H]1O[C@@H]1O[C@H](CO)[C@@H](O)[C@H](O)[C@H]1O)C(C)(C)O)C1CC[C@@]2(C)C3CC=C4C(CC[C@H](O[C@@H]5O[C@H](CO[C@H]6O[C@H](COC7O[C@H](CO)[C@@H](O)[C@H](O)[C@H]7O)[C@@H](O)[C@H](O)[C@H]6O)[C@@H](O)[C@H](O)[C@H]5O)C4(C)C)[C@]3(C)[C@H](O)C[C@]12C (stereo partly drawn) [Compound 33] and C[C@H](CC[C@@H](O[C@@H]1O[C@H](CO[C@@H]2O[C@H](CO)[C@@H](O)[C@H](O)[C@H]2O)[C@@H](O)[C@H](O)[C@H]1O[C@@H]1O[C@H](CO)[C@@H](O)[C@H](O)[C@H]1O)C(C)(C)O)C1CC[C@@]2(C)C3CC=C4C(CC[C@H](O[C@@H]5O[C@H](CO[C@@H]6O[C@H](CO)[C@@H](O)[C@H](O)[C@H]6O)[C@@H](O)[C@H](O)[C@H]5O)C4(C)C)[C@]3(C)C=C[C@]12C (stereo partly drawn) [Compound 31] cannot be ordered by EC50: greater than 30 µM for the first, greater than 30 µM for the second.

C[C@H](CC[C@@H](O[C@@H]1O[C@H](CO[C@@H]2O[C@H](CO)[C@@H](O)[C@H](O)[C@H]2O)[C@@H](O[C@@H]2O[C@H](CO)[C@@H](O)[C@H](O)[C@H]2O)[C@H](O)[C@H]1O)C(C)(C)O)C1CC[C@@]2(C)C3CC=C4C(CC[C@H](O[C@@H]5C[C@H](COC6O[C@H](CO)[C@@H](O)[C@H](O)[C@H]6O)[C@@H](O)[C@H](O)[C@H]5O)C4(C)C)[C@]3(C)C(=O)C[C@]12C (stereo partly drawn) [Compound 29] and C[C@H](CC[C@@H](O[C@@H]1O[C@H](CO[C@H]2O[C@H](CO)[C@@H](O)[C@H](O)[C@H]2O)[C@@H](O)[C@H](O)[C@H]1O[C@@H]1O[C@H](CO)[C@@H](O)[C@H](O)[C@H]1O)C(C)(C)O)C1CC[C@@]2(C)C3CC=C4C(CC[C@H](O[C@@H]5O[C@H](CO)[C@@H](O)[C@H](O)[C@H]5O)C4(C)C)[C@]3(C)C(=O)C[C@]12C (stereo partly drawn) [Compound 11] cannot be ordered by EC50: greater than 30 µM for the first, greater than 30 µM for the second.

C[C@H](CC[C@@H](O[C@@H]1O[C@H](CO)[C@@H](O[C@@H]2O[C@H](CO)[C@@H](O)[C@H](O)[C@H]2O)[C@H](O)[C@H]1O[C@@H]1O[C@H](CO)[C@@H](O)[C@H](O)[C@H]1O)C(C)(C)O)C1CC[C@@]2(C)C3CC=C4C(CC[C@H](O)C4(C)C)[C@]3(C)[C@H](O)C[C@]12C (stereo partly drawn) [Compound 35] was tested, and the EC50 was 17 to 30 µM.
